The first assay addresses T1, rh beta trypsin (Homo sapiens, UniProt P20231).
T1 construct: purchased Promega
Put plainly: Trypsin (tryptase) inhibition, cleavage of N-p-Gly-Pro-Lys-para-nitroaniline measured at 405 nm. The class given is biochemical. The conditions noted are these: in vitro tests on the pro-drugs of formula IIA; read-out: IC50. The protocol: The compounds of the invention are notable for their effective trypsin-inhibiting property. The said capacity to inhibit trypsin activity was determined in accordance with the following trial descriptions.
The determinations are carried out in tris-HCl buffer (100 mM), that also contained calcium (5 mM) and heparin ([…]), at a pH of 7.4. As the standard, rh beta trypsin is used, this is commercially obtainable, for example, from Promega. A suitable substrate is N-p-Gly-Pro-Lys-para-nitroaniline in a concentration of 0.6 mM. The substrate is digested with trypsin, whereby p-nitro-aniline is obtained that can be measured at 405 nm. Normally, an incubation period of 5 minutes and an incubation temperature of 37° C. is chosen. For the enzyme activity, 0.91 U/ml are used. The determination is carriedout in an auto-analyser (Cobas Bio) from the firm Hoffmann LaRoche. The potential inhibitor substances are used in the screening procedure in concentrations of 10 μM, and the inhibition of the trypsin is given in percentages. At an inhibition in excess of 70%, the IC50 is determined (the concentration at which 50% of the enzyme activity is inhibited). After a 5-minute pre-incubation of the potential inhibiting substance, the substrate is added for the start of the reaction, whereby the production of p-nitro-aniline is taken, after 5 minutes, after testing the linearity, as a measure of the enzyme activity.
T1 sequence (P20231 31-275): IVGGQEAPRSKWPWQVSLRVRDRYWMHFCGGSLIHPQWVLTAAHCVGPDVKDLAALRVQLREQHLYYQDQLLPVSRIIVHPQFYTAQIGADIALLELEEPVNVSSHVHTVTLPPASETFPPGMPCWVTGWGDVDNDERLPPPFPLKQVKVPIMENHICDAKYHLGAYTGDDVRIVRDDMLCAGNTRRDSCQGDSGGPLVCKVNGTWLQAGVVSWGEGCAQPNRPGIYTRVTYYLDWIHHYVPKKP
For `CCOC(=O)N=C(N)c1ccc(CCc2nc3cc(C(=O)N4CCC(NC(=O)c5ccccc5)CC4)ccc3n2C)cc1` [IIA6], the IC50 amounted to 2490 nM.
With `CCCCCCCCOC(=O)N=C(N)c1ccc(CCc2nc3cc(C(=O)N4CCC(NC(=O)c5ccccc5)CC4)ccc3n2C)cc1` [IIA10], the IC50 was 7910 nM.
The same measure, in the same setting: under `Cn1c(CCc2ccc(C(N)=NC(=O)c3ccccc3)cc2)nc2cc(C(=O)N3CCC(NC(=O)c4ccccc4)CC3)ccc21` [IIA17] stands 360 nM.

The assay is the same for the next values; noted with them: in vitro; tris-HCl buffer pH 7.4 with calcium and heparin; substrate 0.6 mM; 5 minutes, 37° C.; read-out: Trypsin-inhibiting property.
For the compound `CN(C(=O)c1ccccc1)C1CCN(C(=O)c2ccc3c(c2)nc(CCc2ccc(C(=N)N)cc2)n3C)CC1` [Example 53, 2-[2-(4-Amidinophenyl)-ethyl]-1-methyl-benzimidazole-5-yl-carbooxylic acid-[4-(N-methyl)benzamidopiperidinyl]-amide], the IC50 fell in the range of 1 to 20 nM.
For `CN(C(=O)Nc1cccc(Cl)c1Cl)C1CCN(C(=O)c2ccc3c(c2)nc(CCc2ccc(C(=N)N)cc2)n3C)CC1` [Example 55, 2-[2-(4-Amidinophenyl)-ethyl]-1-methyl-benzimidazole-5-yl-carboxylic acid-{4-[3-(2,3-dichloro)-phenyl-1-methyl-ureido]piperidinyl)-amide], the IC50 was in the range of 1 to 20 nM.
For `CC(=O)c1cccc(NC(=O)NC2CCN(C(=O)c3ccc4c(c3)nc(CCc3ccc(C(=N)N)cc3)n4C)CC2)c1` [Example 56, 2-[2-(4-Amidinophenyl)-ethyl]-1-methyl-benzimidazole-5-yl-carboxylic acid-{4-[3-(3-acetyl)-phenylureido]piperidinyl}-amide], the IC50 fell in the range of 1 to 20 nM.
Consider `COC(=O)c1cccc(NC(=O)NC2CCN(C(=O)c3ccc4c(c3)nc(CCc3ccc(C(=N)N)cc3)n4C)CC2)c1` [Example 57, 2-[2-(4-Amidinophenyl)-ethyl]-1-methyl-benzimidazole-5-yl-carboxylic acid-{4-[3-(3-methoxycarbonyl)phenylureido]piperidinyl}-amide], for which the IC50 was in the range of 1 to 20 nM.
Same read-out and setting: for `CSc1cccc(NC(=O)NC2CCN(C(=O)c3ccc4c(c3)nc(CCc3ccc(C(=N)N)cc3)n4C)CC2)c1` [Example 58, 2-[2-(4-Amidinophenyl)-ethyl]-1-methyl-benzimidazole-5-yl-carboxylic acid-{4-[3-(3-methylsulfanyl)phenylureido]piperidinyl}-amide] the value was 0.1 to 1 nM; for `Cn1c(CCc2ccc(C(=N)N)cc2)nc2cc(C(=O)N3CCC(NC(=O)Nc4cccc(Cl)c4)CC3)ccc21` [Example 60, 2-[2-(4-Amidinophenyl)-ethyl]-1-methyl-benzimidazole-5-yl-carboxylic acid-{4-[3-(3-chloro)-phenylureido]piperidinyl}-amide], 0.1 to 1 nM.
Still for that read-out and setting: under `COC(=O)c1cccc(NC(=O)N(C)C2CCN(C(=O)c3ccc4c(c3)nc(CCc3ccc(C(=N)N)cc3)n4C)CC2)c1` [Example 61, 2-[2-(4-Amidinophenyl)-ethyl]-1-methyl-benzimidazole-5-yl-carboxylic acid-{4-[3-(3-methoxycarbonyl)-phenyl-1-methyl-ureido]piperidinyl)-amide] stands 1 to 20 nM; under `Cn1c(CCc2ccc(C(=N)N)cc2)nc2cc(C(=O)N3CCC(NC(=O)Nc4cccc(C(=O)O)c4)CC3)ccc21` [Example 62, [2-(4-Amidinophenyl)-ethyl]-1-methyl-benzimidazole-5-yl-carboxylic acid-{4-[3-(3-carboxyphenyl)-ureido]-piperidinyl}-amide], 1 to 20 nM.
Regarding `Cn1c(CCc2ccc(C(=N)N)cc2)nc2cc(C(=O)N3CCC(NC(=O)c4cc(Cl)ccc4Cl)CC3)ccc21` [Example 64], the IC50 lay within 0.1 to 1 nM.
The same measure, in the same setting: for `Cn1c(CCc2ccc(C(=N)N)cc2)nc2cc(C(=O)N3CCC(Nc4cccc(Cl)c4Cl)CC3)ccc21` [Example 65] the value was 1 to 20 nM; for `Cn1c(CCc2ccc(C(=N)N)cc2)nc2cc(C(=O)N3CCC(NC(=O)c4cccc(Cl)c4Cl)CC3)ccc21` [Example 67], 0.1 to 1 nM; for `CN(C1CCN(C(=O)c2ccc3c(c2)nc(CCc2ccc(C(=N)N)cc2)n3C)CC1)S(=O)(=O)/C=C/c1ccccc1` [Example 166], 1 to 20 nM.
The same measure, in the same setting: under `Cn1c(CCc2ccc(C(=N)N)cc2)nc2cc(C(=O)N3CCC(NS(=O)(=O)/C=C/c4ccccc4)CC3)ccc21` [Example 167] stands 1 to 20 nM; under `CCCCS(=O)(=O)N(C)C1CCN(C(=O)c2ccc3c(c2)nc(CCc2ccc(C(=N)N)cc2)n3C)CC1` [Example 168], 1 to 20 nM.
For the compound `CN(C1CCN(C(=O)c2ccc3c(c2)nc(CCc2ccc(C(=N)N)cc2)n3C)CC1)S(=O)(=O)c1cccc2ccccc12` [Example 169], the IC50 is 1 to 20 nM.
Still for that read-out and setting: under `Cc1c(Cl)cccc1S(=O)(=O)N(C)C1CCN(C(=O)c2ccc3c(c2)nc(CCc2ccc(C(=N)N)cc2)n3C)CC1` [Example 170] stands 1 to 20 nM.
On to `CN(C1CCN(C(=O)c2ccc3c(c2)nc(CCc2ccc(C(=N)N)cc2)n3C)CC1)S(=O)(=O)c1cccc(Cl)c1Cl` [Example 171], for which the IC50 lay in the range of 20 to 50 nM.
On the same count and under the same terms, under `CCCCS(=O)(=O)NC1CCN(C(=O)c2ccc3c(c2)nc(CCc2ccc(C(=N)N)cc2)n3C)CC1` [Example 173] stands 20 to 50 nM; under `Cn1c(CCc2ccc(C(=N)N)cc2)nc2cc(C(=O)N3CCC(NC(=O)Cc4cccc5ccccc45)CC3)ccc21` [Example 189], 1 to 20 nM.
On to `N=C(N)c1ccc(CCc2nc3cc(C(=O)N4CCC(NC(=O)c5ccccc5)CC4)ccc3n2C2CC2)cc1` [Example 196], for which the IC50 was 20 to 50 nM.

Values taken from patent US6855713B2, “Benzimidazole derivatives, a process for their manufacture and use as a medicine” (Boehringer Ingelheim Pharma KG, priority 2001, dated 2005).
